From patent publication US20220008391A1, “NOVEL COMPOUNDS FOR CONTROLLING ARTHROPODS” (Bayer Animal Health GmbH, priority 2018, published 2022)
Converted amounts (≈) assume the structure as drawn.

Assay: Measurement of solubility in buffer at pH 6.5
Assay type: physicochemical
Conditions: aqueous buffer, kinetic from dmso stock; PBS buffer pH 6.5, shaken 24h at rt, LC-MSMS; read-out: Solubility of example compounds at pH 6.5
Method: Measurement of Solubility in Buffer at pH 6.5 2-4 mg of the test compound are dissolved in DMSO to reach a concentration of 50 g/L (solution A). To 10 μl of this solution 960 μl PBS buffer pH 6.5 are added (final concentration: 515 μg/1); the mixture is shaken for 24h at rt in a 96 well plate. An aliquot is centrifuged at 42000 rpm für 30 min. The supernatant is diluted with acetonitrile/water (8:2) 1:10 and 1:1000 resp. This diluted samples are analyzed by LC-MSMS. Calibration: 10 μl of solution A are diluted with 823 μl DMSO (final concentration: 600 μg/ml), which is further diluted with acetonitrile/water 8:2 by a factor of 100 (provides solution B). The calibration curve is obtained from solution B by further diluting with acetonitrile/water 8:2 with target concentrations of 1.2-12-60-600 ng/ml and injecting these four solutions for MS measurement. PBS-Puffer: 6.18 g sodium chloride and 3.96 g sodium dihydrogen phosphate are dissolved in 1 L aqua dist., the pH is adjusted to 6.5 with 1N sodium hydroxide. The following conditions were used for quantification: Autosampler without auto inject ahead setting, column: Waters OASIS HLB, 2,1×20 mm, 25μ, column temperature: 30° C., flow rate: 2.5 mL/min, injected volume: 2 μl, Splitter (before MS) 1:20.

Structure (SMILES)	solubility at 24 h
CC(C)(COC(=O)CCC(=O)O)COC(=O)OCN(C(=O)c1cc(-c2cnn(-c3c(Cl)cc(C(F)(C(F)(F)F)C(F)(F)F)cc3OC(F)(F)F)c2)ccc1Cl)C1(C#N)CC1 [Example 5, 1-(2-Chloro-5-{1-[2-chloro-4-(1,1,1,2,3,3,3-heptafluoropropan-2-yl)-6-(trifluoromethoxy)phenyl]-1H-pyrazol-4-yl}phenyl)-2-(1-cyanocyclopropyl)-8,8-dimethyl-1,5,11-trioxo-4,6,10-trioxa-2-azatetradecan-14-oic Acid]	2 µg/mL (≈ 2.2 µM)
CC(C)(COCCOC(=O)OCN(C(=O)c1cc(-c2cnn(-c3c(Cl)cc(C(F)(C(F)(F)F)C(F)(F)F)cc3OC(F)(F)F)c2)ccc1Cl)C1(C#N)CC1)C(=O)O [Example 8, 1-(2-chloro-5-{1-[2-chloro-4-(1,1,1,2,3,3,3-heptafluoropropan-2-yl)-6-(trifluoromethoxy)phenyl]-1H-pyrazol-4-yl}phenyl)-2-(1-cyanocyclopropyl)-11,11-dimethyl-1,5-dioxo-4,6,9-trioxa-2-azadodecan-12-oic Acid]	1 µg/mL (≈ 1.15 µM)
CC(C)(CC(=O)OCCOC(=O)OCN(C(=O)c1cc(-c2cnn(-c3c(Cl)cc(C(F)(C(F)(F)F)C(F)(F)F)cc3OC(F)(F)F)c2)ccc1Cl)C1(C#N)CC1)C(=O)O [Example 9, 1-(2-Chloro-5-{1-[2-chloro-4-(1,1,1,2,3,3,3-heptafluoropropan-2-yl)-6-(trifluoromethoxy)phenyl]-1H-pyrazol-4-yl}phenyl)-2-(1-cyanocyclopropyl)-12,12-dimethyl-1,5,10-trioxo-4,6,9-trioxa-2-azatridecan-13-oic Acid]	5 µg/mL (≈ 5.58 µM)
N#CC1(N(COC(=O)OCCOC(=O)CCCC(=O)O)C(=O)c2cc(-c3cnn(-c4c(Cl)cc(C(F)(C(F)(F)F)C(F)(F)F)cc4OC(F)(F)F)c3)ccc2Cl)CC1 [Example 12, 1-(2-Chloro-5-{1-[2-chloro-4-(1,1,1,2,3,3,3-heptafluoropropan-2-yl)-6-(trifluoromethoxy)phenyl]-1H-pyrazol-4-yl}phenyl)-2-(1-cyanocyclopropyl)-1,5,10-trioxo-4,6,9-trioxa-2-azatetradecan-14-oic Acid]	3 µg/mL (≈ 3.4 µM)
N#CC1(N(COC(=O)OCCOC(=O)C2(C(=O)O)CC2)C(=O)c2cc(-c3cnn(-c4c(Cl)cc(C(F)(C(F)(F)F)C(F)(F)F)cc4OC(F)(F)F)c3)ccc2Cl)CC1 [Example 13, 1-[10-(2-Chloro-5-{1-[2-chloro-4-(1,1,1,2,3,3,3-heptafluoropropan-2-yl)-6-(trifluoromethoxy)phenyl]-1H-pyrazol-4-yl}phenyl)-9-(1-cyanocyclopropyl)-6,10-dioxo 2,5,7-trioxa-9-azadecanan-1-oyl]cyclopropane-1-carboxylic Acid]	7 µg/mL (≈ 7.96 µM)
N#CC1(N(COC(=O)O[C@H]2CC[C@@H](OC(=O)/C=C/C(=O)O)CC2)C(=O)c2cc(-c3cnn(-c4c(Cl)cc(C(F)(C(F)(F)F)C(F)(F)F)cc4OC(F)(F)F)c3)ccc2Cl)CC1 [Example 14, (2E)-4-({cis-4-[({[(2-chloro-5-{1-[2-chloro-4-(1,1,1,2,3,3,3-heptafluoropropan-2-yl)-6-(trifluoromethoxy)phenyl]-1H-pyrazol-4-yl}benzoyl)(1-cyanocyclopropyl)amino]methoxy}carbonyl)oxy]cyclohexyl}oxy)-4-oxobut-2-enoic Acid]	19 µg/mL (≈ 20.7 µM)
N#CC1(N(COC(=O)O[C@H]2CC[C@H](OC(=O)/C=C/C(=O)O)CC2)C(=O)c2cc(-c3cnn(-c4c(Cl)cc(C(F)(C(F)(F)F)C(F)(F)F)cc4OC(F)(F)F)c3)ccc2Cl)CC1 [Example 16, (2E)-4-({trans-4-[({[(2-chloro-5-{1-[2-chloro-4-(1,1,1,2,3,3,3-heptafluoropropan-2-yl)-6-(trifluoromethoxy)phenyl]-1H-pyrazol-4-yl}benzoyl)(1-cyanocyclopropyl)amino]methoxy}carbonyl)oxy]cyclohexyl}oxy)-4-oxobut-2-enoic Acid]	2 µg/mL (≈ 2.18 µM)

Second part, the compound after the results:

solubility at 24 h	Structure (SMILES)
4 µg/mL (≈ 4.42 µM)	N#CC1(N(COC(=O)O[C@H]2CCC[C@H]2OC(=O)/C=C/C(=O)O)C(=O)c2cc(-c3cnn(-c4c(Cl)cc(C(F)(C(F)(F)F)C(F)(F)F)cc4OC(F)(F)F)c3)ccc2Cl)CC1 (relative stereo) [Example 6, (2E)-4-({(rel 1R,2S)-2-[({[(2-chloro-5-{1-[2-chloro-4-(1,1,1,2,3,3,3-heptafluoropropan-2-yl)-6-(trifluoromethoxy)phenyl]-1H-pyrazol-4-yl}benzoyl)(1-cyanocyclopropyl)amino]methoxy}carbonyl)oxy]cyclopentyl}oxy)-4-oxobut-2-enoic Acid]
3 µg/mL (≈ 3.31 µM)	N#CC1(N(COC(=O)O[C@H]2CCC[C@H]2OC(=O)CCC(=O)O)C(=O)c2cc(-c3cnn(-c4c(Cl)cc(C(F)(C(F)(F)F)C(F)(F)F)cc4OC(F)(F)F)c3)ccc2Cl)CC1 (relative stereo) [Example 7, 4-({(rel 1R,2S)-2-[({[(2-chloro-5-{1-[2-chloro-4-(1,1,1,2,3,3,3-heptafluoropropan-2-yl)-6-(trifluoromethoxy)phenyl]-1H-pyrazol-4-yl}benzoyl)(1-cyanocyclopropyl)amino]methoxy}carbonyl)oxy]cyclopentyl}oxy)-4-oxobutanoic Acid]
6 µg/mL (≈ 6.92 µM)	N#CC1(N(COC(=O)OCCOC(=O)CCC(=O)O)C(=O)c2cc(-c3cnn(-c4c(Cl)cc(C(F)(C(F)(F)F)C(F)(F)F)cc4OC(F)(F)F)c3)ccc2Cl)CC1 [Example 3, 1-(2-Chloro-5-{1-[2-chloro-4-(1,1,1,2,3,3,3-heptafluoropropan-2-yl)-6-(trifluoromethoxy)phenyl]-1H-pyrazol-4-yl}phenyl)-2-(1-cyanocyclopropyl)-1,5,10-trioxo-4,6,9-trioxa-2-azatridecan-13-oic Acid]
3 µg/mL (≈ 3.31 µM)	N#CC1(N(COC(=O)O[C@H]2CCC[C@@H]2OC(=O)/C=C/C(=O)O)C(=O)c2cc(-c3cnn(-c4c(Cl)cc(C(F)(C(F)(F)F)C(F)(F)F)cc4OC(F)(F)F)c3)ccc2Cl)CC1 [Example 10, (2E)-4-({(1S,2S)-2-[({[(2-chloro-5-{1-[2-chloro-4-(1,1,1,2,3,3,3-heptafluoropropan-2-yl)-6-(trifluoromethoxy)phenyl]-1H-pyrazol-4-yl}benzoyl)(1-cyanocyclopropyl)amino]methoxy}carbonyl)oxy]cyclopentyl}oxy)-4-oxobut-2-enoic Acid]
2 µg/mL (≈ 2.2 µM)	N#CC1(N(COC(=O)O[C@H]2CCC[C@@H]2OC(=O)CCC(=O)O)C(=O)c2cc(-c3cnn(-c4c(Cl)cc(C(F)(C(F)(F)F)C(F)(F)F)cc4OC(F)(F)F)c3)ccc2Cl)CC1 [Example 11, 4-({(1S,2S)-2-[({[(2-chloro-5-{1-[2-chloro-4-(1,1,1,2,3,3,3-heptafluoropropan-2-yl)-6-(trifluoromethoxy)phenyl]-1H-pyrazol-4-yl}benzoyl)(1-cyanocyclopropyl)amino]methoxy}carbonyl)oxy]cyclopentyl}oxy)-4-oxobutanoic Acid]
1 µg/mL (≈ 1.09 µM)	N#CC1(N(COC(=O)O[C@H]2CC[C@@H](OC(=O)CCC(=O)O)CC2)C(=O)c2cc(-c3cnn(-c4c(Cl)cc(C(F)(C(F)(F)F)C(F)(F)F)cc4OC(F)(F)F)c3)ccc2Cl)CC1 [Example 15, 4-({cis-4-[({[(2-chloro-5-{1-[2-chloro-4-(1,1,1,2,3,3,3-heptafluoropropan-2-yl)-6-(trifluoromethoxy)phenyl]-1H-pyrazol-4-yl}benzoyl)(1-cyanocyclopropyl)amino]methoxy}carbonyl)oxy]cyclohexyl}oxy)-4-oxobutanoic Acid]
